Reference: patent US8575135B2 (Gilead Sciences, Inc., priority 2011, dated 2013)
pEC50: −log10 of the molar value. Read-outs that look alike come from different tables or passages of the source.

What was measured:
Test in all cases: microbe, parasite or virus in culture
[1] = tested on: stable HCV 1a RLuc replicon cells (genotype 1a H77 replicon); type: cell-based; details: Hepatitis C virus; for pEC50: read-out: 1a; for EC50: read-out: 1a (nM)
Experimental: (§1) Evaluation of Cell-Based Anti-HCV Activity:
(§2) Antiviral potency (EC50) was determined using a Renilla luciferase (RLuc)-based HCV replicon reporter assay. […] To perform the assay for genotype 2a (with M31 present in NS5A) or 2b, NS5A chimeric genotype 2a JFH-1 replicons that encodes a RLuc-Neo reporter and either genotype 2a J6 strain NS5A gene or genotype 2b MD2b-1 strain NS5A gene (both with M31 present) respectively, were either transiently transfected (t) into Huh-Lunet cells or were established as stably replicating replicon cells (s) is provided. Either cells were dispensed into 384-well plates for EC50 assays. To perform the assay for genotype 3 and 4, NS5A chimeric genotype 1b Con1 replicons that encodes a Pi-RLuc reporter and either genotype 3a S52 strain NS5A gene or genotype 4a ED43 strain NS5A gene respectively, were transiently transfected (t) into Huh-Lunet cells, which were subsequently dispensed into 384-well plates. Compounds were dissolved in DMSO at a concentration of 10 mM and diluted in DMSO either manually or using an automated pipeting instrument. Serially 3-fold diluted compounds were either manually mixed with cell culture media and added to the seeded cells or directly added to the cells using an automated instrument. […] 72 hours later, cells were lysed and Renilla luciferase activity quantified as recommended by the manufacturer (Promega-Madison, Wis.). Non-linear regression was performed to calculate EC50 values.

[2] = tested on: stable HCV 2a JFH-1 Rluc replicon cells (L31 present in NS5A); type: cell-based; details: Hepatitis C virus; for pEC50: read-out: 2a JFH; for EC50: read-out: 2a JFH (nM)
[3] = tested on: NS5A chimeric genotype 1b Con1 replicon with genotype 3a S52 strain NS5A gene; type: cell-based, HCV; details: Hepatitis C virus; for pEC50: read-out: 3a; for EC50: read-out: 3a (nM)
Experimental: as §1, §2

[4] = tested on: NS5A chimeric genotype 2a JFH-1 replicon with genotype 2a J6 strain NS5A gene (M31 present); type: cell-based, HCV; details: Hepatitis C virus; for pEC50: read-out: 2a J6
Experimental: as §1, §2

[5] = tested on: NS5A chimeric genotype 2a JFH-1 replicon with genotype 2b MD2b-1 strain NS5A gene (M31 present); type: cell-based, HCV; details: Hepatitis C virus; for pEC50: read-out: 2b
Experimental: as §1, §2

[6] = tested on: NS5A chimeric genotype 1b Con1 replicon with genotype 4a ED43 strain NS5A gene; type: cell-based, HCV; details: Hepatitis C virus; for pEC50: read-out: 4a
[7] = tested on: 1a Pi-Rluc replicon with Q30R in genotype 1a NS5A; type: cell-based, HCV; details: Hepatitis C virus; for pEC50: read-out: 1a Q30R; for EC50: read-out: 1a Q30R (nM)
Experimental: as §2
To determine the antiviral potency (EC50) against resistance mutants, resistance mutations, including M28T, Q30R, Q30H, L31M, and Y93C in genotype 1a NS5A and Y93H in genotype 1b NS5A, were introduced individually into either 1a Pi-Rluc or 1b Pi-Rluc replicons by site directed mutagenesis. Replicon RNA of each resistant mutant was transiently transfected into Huh-7-derived cured-51 cells and antiviral potency was determined on these transfected cells as described above.

| Compound | pEC50 [1] | EC50 [1] | pEC50 [2] | EC50 [2] | pEC50 [3] | EC50 [3] | pEC50 [4] | EC50 ([4]; read-out: 2a J6 (s) (nM)) | pEC50 [5] | EC50 ([5]; read-out: 2b (s) (nM)) | pEC50 [6] | EC50 ([6]; read-out: 4a (s) (nM)) | EC50 ([6]; read-out: 4a (t) (nM)) | EC50 ([4]; read-out: 2a Jb (t) (nM)) | EC50 ([5]; read-out: 2b (t) (nM)) | pEC50 [7] | EC50 [7] |
| --- | --- | --- | --- | --- | --- | --- | --- | --- | --- | --- | --- | --- | --- | --- | --- | --- | --- |
| COC(=O)N[C@H](C(=O)N1CCC[C@H]1c1ncc(-c2ccc3c(c2)COc2cc4c(ccc5nc([C@@H]6C[C@H]7C[C@H]7N6C(=O)[C@@H](NC(=O)OC)C(C)C)[nH]c54)cc2-3)[nH]1)C(C)C [Compound 518] | > 9.00 | 0.005 nM | > 9.00 | 0.006 nM | > 9.00 | 0.005 nM | 8.30 to 9.00 | 2.49 nM | > 9.00 | 0.643 nM | > 9.00 | 0.011 nM | 0.004 nM |  |  |  |  |
| COC[C@H]1C[C@@H](c2ncc(-c3ccc4c(c3)COc3cc5c(ccc6nc([C@@H]7CCCN7C(=O)[C@H](NC(=O)OC)c7ccccc7)[nH]c65)cc3-4)[nH]2)N(C(=O)[C@@H](NC(=O)OC)[C@@H](C)OC)C1 [Compound 626] | > 9.00 | 0.021 nM | > 9.00 | 0.009 nM | > 9.00 | 0.027 nM | > 9.00 |  | > 9.00 |  |  |  |  | 0.021 nM | 0.021 nM | > 9.00 | 0.041 nM |
| COC(=O)N[C@H](C(=O)N1[C@@H](C)CC[C@H]1c1ncc(-c2ccc3c(c2)COc2cc4c(ccc5nc([C@@H]6CCCN6C(=O)[C@H](NC(=O)OC)c6ccccc6)[nH]c54)cc2-3)[nH]1)C(C)C [Example NQ, Methyl {(2S)-1-[(2S,5S)-2-(5-{2-[(2S)-1-{(2R)-2-[(methoxycarbonyl)amino]-2-phenylacetyl}pyrrolidin-2-yl]-1,11-dihydroisochromeno[4′,3′:6,7]naphtho[1,2-d]imidazol-9-yl}-1H-imidazol-2-yl)-5-methylpyrrolidin-1-yl]-3-methyl-1-oxobutan-2-yl}carbamate] | > 9.00 | 0.017 nM | > 9.00 | 0.006 nM | > 9.00 | 0.013 nM | > 9.00 |  | > 9.00 | 0.012 nM |  |  |  | 0.064 nM | 0.013 nM | > 9.00 | 0.039 nM |
| CC[C@H](C)[C@H](NC(=O)OC)C(=O)N1C[C@@H](COC)C[C@H]1c1ncc(-c2ccc3c(c2)COc2cc4c(ccc5nc([C@@H]6C[C@H](COC)CN6C(=O)[C@@H](NC(=O)OC)[C@@H](C)CC)[nH]c54)cc2-3)[nH]1 [Example OJ] | > 9.00 | 0.018 nM | > 9.00 | 0.013 nM | > 9.00 | 0.259 nM | > 9.00 | 0.502 nM | > 9.00 | 0.813 nM | > 9.00 | 0.017 nM | 0.026 nM |  |  |  |  |
| CC[C@H](C)[C@H](NC(=O)OC)C(=O)N1C[C@@H](COC)C[C@H]1c1nc2ccc3cc4c(cc3c2[nH]1)OCc1cc(-c2cnc([C@@H]3CC[C@H](C)N3C(=O)[C@@H](NC(=O)OC)C(C)C)[nH]2)ccc1-4 [Example ON, methyl {(2S)-1-[(2S,4S)-2-(5-{2-[(2S,5S)-1-{(2S,3S)-2-[(methoxycarbonyl)amino]-3-methylpentanoyl}-4-(methoxymethyl)-2-yl]-1,11-dihydroisochromeno[4′,3′:6,7]naphtho[1,2-d]imidazol-9-yl}-1H-imidazol-2-yl)-5-methylpyrrolidin-1-yl]-3-methyl-1-oxobutan-2-yl}carbamate] | > 9.00 | 0.005 nM | > 9.00 | 0.004 nM |  |  | > 9.00 |  |  |  |  |  |  | 0.068 nM | 0.086 nM | > 9.00 |  |
| COC(=O)N[C@H](C(=O)N1CCCC1c1ncc(-c2ccc3c(c2)COc2cc4c(ccc5nc([C@@H]6C[C@@H]7CCC[C@@H]7N6C(=O)[C@@H](NC(=O)OC)C(C)C)[nH]c54)cc2-3)[nH]1)C(C)C (stereo partly drawn) [Example PO, methyl {(2S)-1-[2-(5-{2-[(2S,3aS,6aS)-1-{(2S)-2-[(methoxycarbonyl)amino]-3-methylbutanoyl}octahydrocyclopenta[b]pyrrol-2-yl]-1,11-dihydroisochromeno[4′,3′:6,7]naphtho[1,2-d]imidazol-9-yl}-1H-imidazol-2-yl)pyrrolidin-1-yl]-3-methyl-1-oxobutan-2-yl}carbamate] | > 9.00 | 0.013 nM | > 9.00 | 0.011 nM | > 9.00 | 0.012 nM | 8.30 to 9.00 | 3.13 nM | > 9.00 | 0.47 nM | > 9.00 | 0.013 nM | 0.013 nM |  |  |  |  |
